Patent US20070166415A1, “Safe medicine for treating and preventing cancer and method of use” (priority 2006, published 2007)

What was measured:
[1] = system: salmonella typhimurium TA98; test: Salmonella mutagenicity test, TA98; type: cell-based
Description: (§1) Methods for detecting carcinogens and mutagens with the salmonellia mutagenicity test are highly efficient in detecting carcinogens and mutagens. Major carcinogens tested have been detected as mutagens. Salmonella mutagenicity assay is very sensitive and simply test for detecting mutagens and carcinogens.
(§2) Mutagenicity assays were carried out at least in triplicate.

[2] = system: salmonella typhimurium TA100; test: Salmonella mutagenicity test, TA100; type: cell-based
Description: as §1, §2

[3] = Metabolism (organ and blood radioactivity) of [^3H]-HHT in P388 mice; type: in vivo
Description: Animals: Adult DBA/2J male mice, 6 to 8 weeks old. All animals weighed approximately 25 g when used in experiments. Each member of which received identical dosed (i.p.) of HHT. Tumor: P388 leukemic cells induced in mice by inoculation with L1210 or P388 leukemic cells (1.0×10^5). After P388 induced in mice 5 days, 1 mg/kg of [^3H]-HHT (100 μC/mg) was injected to mice. […] Mice were killed at 1, 3, 6 and 24 hours after injection of [^3H]-HHT. The key data of HHT in metabolism process are determined counts per minute (CPM) of [^3H]-HHT in organs. CPM is determined by liquid scintillation counting (LSC). The methods of LSC combined with radioactive of [^3H]-HHT can be determined using a tracer of HHT in organs. After killed animals, organs and blood were obtained from P388 mice. […] Other processes are similar to the standard method.

[4] = system: salmonella typhimurium TA97; test: Salmonella mutagenicity test, TA97; type: cell-based
Description: as §1, §2

[5] = dog, in vivo
Excerpt: Twenty normal adult dogs which weight approximately 10 kg[…] used in experiments.
Most deaths were caused by cardiac dysfunction.

COC(=O)C[C@](O)(CCCC(C)(C)O)C(=O)O[C@@H]1C(OC)=C[C@]23CCCN2CCc2cc4c(cc2[C@H]13)OCO4 [HHT, Homoharringtonine]
Number of His^+revertants/plate ([1]; TA98 +S, 0.1 μg/plate): 34 ± 4 revertants/plate
Number of His^+revertants/plate ([1]; TA98 +S, 1 μg/plate): 32 ± 4 revertants/plate
Number of His^+revertants/plate ([1]; TA98 +S, 10 μg/plate): 36 ± 3 revertants/plate
Number of His^+revertants/plate ([1]; TA98 +S, 100 μg/plate): 34 ± 4 revertants/plate
Number of His^+revertants/plate ([1]; TA98 −S, 0.1 μg/plate): 29 ± 3 revertants/plate
Number of His^+revertants/plate ([1]; TA98 −S, 1 μg/plate): 30 ± 3 revertants/plate
Number of His^+revertants/plate ([1]; TA98 −S, 10 μg/plate): 38 ± 4 revertants/plate
Number of His^+revertants/plate ([1]; TA98 −S, 100 μg/plate): 32 ± 4 revertants/plate
Number of His^+revertants/plate ([2]; TA100 +S, 0.1 μg/plate): 158 revertants/plate
Number of His^+revertants/plate ([2]; TA100 +S, 1 μg/plate): 152 revertants/plate
Number of His^+revertants/plate ([2]; TA100 +S, 10 μg/plate): 165 revertants/plate
Number of His^+revertants/plate ([2]; TA100 +S, 100 μg/plate): 160 revertants/plate
Number of His^+revertants/plate ([2]; TA100 −S, 0.1 μg/plate): 148 ± 12 revertants/plate
Number of His^+revertants/plate ([2]; TA100 −S, 1 μg/plate): 140 ± 13 revertants/plate
Number of His^+revertants/plate ([2]; TA100 −S, 10 μg/plate): 162 ± 17 revertants/plate
Number of His^+revertants/plate ([2]; TA100 −S, 100 μg/plate): 158 ± 15 revertants/plate
CPM of [^3H]-HHT, Bone ([3]; 1 hour after 1 mg/kg i.p.): 500 CMP/mg organ
CPM of [^3H]-HHT, Brain ([3]; 1 hour after 1 mg/kg i.p.): 499 CMP/mg organ
CPM of [^3H]-HHT, Contents of intestine ([3]; 1 hour after 1 mg/kg i.p.): 3323 CMP/mg organ
CPM of [^3H]-HHT, Contents of stomach ([3]; 1 hour after 1 mg/kg i.p.): 6821 CMP/mg organ
CPM of [^3H]-HHT, Heart ([3]; 1 hour after 1 mg/kg i.p.): 1403 CMP/mg organ
CPM of [^3H]-HHT, Intestine ([3]; 1 hour after 1 mg/kg i.p.): 1638 CMP/mg organ
CPM of [^3H]-HHT, Kidney ([3]; 1 hour after 1 mg/kg i.p.): 6501 CMP/mg organ
CPM of [^3H]-HHT, Liver ([3]; 1 hour after 1 mg/kg i.p.): 4145 CMP/mg organ
CPM of [^3H]-HHT, Lung ([3]; 1 hour after 1 mg/kg i.p.): 2100 CMP/mg organ
CPM of [^3H]-HHT, Spleen ([3]; 1 hour after 1 mg/kg i.p.): 2828 CMP/mg organ
CPM of [^3H]-HHT, Stomach ([3]; 1 hour after 1 mg/kg i.p.): 1626 CMP/mg organ
CPM of [^3H]-HHT, Bone ([3]; 3 hours after 1 mg/kg i.p.): 560 CMP/mg organ
CPM of [^3H]-HHT, Brain ([3]; 3 hours after 1 mg/kg i.p.): 646 CMP/mg organ
CPM of [^3H]-HHT, Contents of intestine ([3]; 3 hours after 1 mg/kg i.p.): 7215 CMP/mg organ
CPM of [^3H]-HHT, Contents of stomach ([3]; 3 hours after 1 mg/kg i.p.): 84375 CMP/mg organ
CPM of [^3H]-HHT, Heart ([3]; 3 hours after 1 mg/kg i.p.): 1800 CMP/mg organ
CPM of [^3H]-HHT, Intestine ([3]; 3 hours after 1 mg/kg i.p.): 3288 CMP/mg organ
CPM of [^3H]-HHT, Kidney ([3]; 3 hours after 1 mg/kg i.p.): 3121 CMP/mg organ
CPM of [^3H]-HHT, Liver ([3]; 3 hours after 1 mg/kg i.p.): 6718 CMP/mg organ
CPM of [^3H]-HHT, Lung ([3]; 3 hours after 1 mg/kg i.p.): 2427 CMP/mg organ
CPM of [^3H]-HHT, Spleen ([3]; 3 hours after 1 mg/kg i.p.): 2426 CMP/mg organ
CPM of [^3H]-HHT, Stomach ([3]; 3 hours after 1 mg/kg i.p.): 2321 CMP/mg organ
CPM of [^3H]-HHT, Bone ([3]; 6 hours after 1 mg/kg i.p.): 505 CMP/mg organ
CPM of [^3H]-HHT, Brain ([3]; 6 hours after 1 mg/kg i.p.): 793 CMP/mg organ
CPM of [^3H]-HHT, Contents of intestine ([3]; 6 hours after 1 mg/kg i.p.): 6250 CMP/mg organ
CPM of [^3H]-HHT, Contents of stomach ([3]; 6 hours after 1 mg/kg i.p.): 100719 CMP/mg organ
CPM of [^3H]-HHT, Heart ([3]; 6 hours after 1 mg/kg i.p.): 1193 CMP/mg organ
CPM of [^3H]-HHT, Intestine ([3]; 6 hours after 1 mg/kg i.p.): 2475 CMP/mg organ
CPM of [^3H]-HHT, Kidney ([3]; 6 hours after 1 mg/kg i.p.): 3501 CMP/mg organ
CPM of [^3H]-HHT, Liver ([3]; 6 hours after 1 mg/kg i.p.): 4109 CMP/mg organ
CPM of [^3H]-HHT, Lung ([3]; 6 hours after 1 mg/kg i.p.): 1788 CMP/mg organ
CPM of [^3H]-HHT, Spleen ([3]; 6 hours after 1 mg/kg i.p.): 2198 CMP/mg organ
CPM of [^3H]-HHT, Stomach ([3]; 6 hours after 1 mg/kg i.p.): 3703 CMP/mg organ
Number of His^+revertants/plate ([4]; TA97 +S, 0.1 μg/plate): 145 ± 14 revertants/plate
Number of His^+revertants/plate ([4]; TA97 +S, 1 μg/plate): 150 ± 14 revertants/plate
Number of His^+revertants/plate ([4]; TA97 +S, 10 μg/plate): 165 ± 16 revertants/plate
Number of His^+revertants/plate ([4]; TA97 +S, 100 μg/plate): 160 ± 17 revertants/plate
Number of His^+revertants/plate ([4]; TA97 −S, 0.1 μg/plate): 120 ± 10 revertants/plate
Number of His^+revertants/plate ([4]; TA97 −S, 1 μg/plate): 130 ± 11 revertants/plate
Number of His^+revertants/plate ([4]; TA97 −S, 10 μg/plate): 160 ± 16 revertants/plate
Number of His^+revertants/plate ([4]; TA97 −S, 100 μg/plate): 150 ± 16 revertants/plate
reversibility of toxicities observed [5]: completely reversible upon discontinuation of treatment
